As a reminder, the melting point is the temperature, or range, at which the solid turns liquid. For `CC1CCC(C(C)C)C(OC(=O)N2CC(=O)N(C)c3ccc(Cl)cc3C2c2ccccc2)C1` (stereo not given), the melting point was determined as 144 °C.

As to `OC[C@H]1C2CCC(C2)[C@@H]1CO`, the melting point was 58 °C.

`CN(C)c1ccc(C=CC(O)Cc2ccccc2)cc1` (stereo not given) displayed a melting point of 158 to 162 °C.

The molecule `Cc1nc(N2C[C@@H](C)N(Cc3ccc(F)cc3)C2=O)sc1C(=O)NCc1cccnc1` displayed a melting point of 135 to 136 °C.

As for `C[C@@H](CN1CCc2ccc3c(c21)OCCO3)NC(=O)OC(C)(C)C`, the melting point fell in the range of 130 to 132 °C.

Molecule `COc1ccc(N=C(C)c2ccccc2)cc1` gave a melting point of 81 to 82 °C.

`O=C(O)c1ccc(C#CC=Cc2ccccc2-c2ccc(Cl)cc2)cc1` had a melting point of 135 °C.

`OC1CCN(Cc2nc(-c3ccc4c(c3)Nc3ccccc3S4)cs2)CC1` had a melting point of 205 to 207 °C.

In the case of `CC(C)Oc1c(C(=O)O)sc2c1CS(=O)CC2` (stereo not given), the melting point was in the range of 192 to 193 °C.

For the molecule `CCCCCCCCCCCCCCCC(=O)n1cc(F)c(=O)[nH]c1=O`, the melting point came out at 98 °C.

`Cc1ccc(CCC(=O)C(=[N+]=[N-])C(=O)CCc2ccc(C)cc2)cc1` registered a melting point of 45.6 to 46.8 °C.

`COc1ccc(Nc2ncc3cc(-c4c(Cl)cccc4Cl)c(=O)n(C)c3n2)cc1C` yielded a melting point of 218 to 220 °C.

Molecule `CCN(CC)Cc1nc(-c2ncn3c2CN(C)C(=O)c2c(Cl)cccc2-3)no1` came in with a melting point of 250 to 252 °C.

In turn, `Fc1ccc(-c2[nH]cc(C3=CC4CCCCN4CC3)c2-c2ccncc2)cc1` (stereo not given) had a melting point of 223 to 224 °C.

For `N#CCc1ccc2oc([N+](=O)[O-])c(-c3ccccc3)c2c1`, the melting point is 166 to 168 °C.

For the molecule `CC(C)N(Cc1cccs1)C(=O)C12CC3CC(CC(C3)C1)C2`, the melting point lay in the range of 156 to 158 °C.

Regarding `CC12CCC(=O)N1CC(=O)N2` (stereo not given), the melting point lay in the range of 187 to 189 °C.

Molecule `O=S1(=O)N=C(NC2(CO)CCCC2)Nc2cc(Cl)sc21` gave a melting point of 213 to 214 °C.

`COc1cccc2c1C(=O)C(CC=O)C2` (racemic): the melting point was determined as 102 °C.

On to `CCn1cc(C(=O)O)c(=O)cc1-c1ccc(NC)c(C)c1`, for which the melting point fell in the range of 243 to 244 °C.

The molecule `COc1cc(C2=C(c3c[nH]c4cccnc34)C(=O)NC2=O)cc(OC)c1OC` showed a melting point of 274 to 275 °C.

With `COC1C(O)C(CO)OC1n1cnc2c(NC3CCCCC3)ncnc21` (stereo not given), the melting point lay in the range of 88 to 91 °C.

For the molecule `CC(C)(C)NC(=O)C(C)(C)N(OC(c1ccccc1)c1ccccc1)C(C)(C)C`, the melting point was 89 to 92 °C.

`CC1(C)C(=O)C(C)(C)c2cc3[nH]c(SCc4ccccn4)nc3cc21` gave a melting point of 167 to 168 °C.

Consider `COc1ccccc1Cc1ccc2nc(N)nc(N)c2c1`, for which the melting point lay in the range of 214 to 215 °C.

For the molecule `CCOC(=O)c1c(N)c2cccnc2n(C2CCCCC2)c1=O`, the melting point fell in the range of 172 to 175 °C.

Molecule `O[C@@H]1CCN(c2ccc3nnn(Cc4ccc5ncccc5c4)c3n2)C1` gave a melting point of 167 to 169 °C.

`CC(C)(C)OC(=O)c1ccc(C(=O)O)cc1` gave a melting point of 100 to 102 °C.

Molecule `CCOC(=O)c1cn(C)c2nc3cc(N4CCNC(Cc5ccccc5)C4)c(F)cc3cc2c1=O` (racemic) registered a melting point of 190 °C.

Regarding `Cc1ccc(-c2nc3ccc(N4C[C@H]5CN(C)C[C@H]5C4)nn3c2-c2ccncc2)o1`, the melting point is 178 to 181 °C.

On to `CCS(=O)(=O)Nc1cc(-n2ncc(N(C)C)c(Cl)c2=O)c(F)cc1C#N`, for which the melting point turned out to be 206 °C.

`CON1C=C2N=Nc3cc(-c4ccccc4)cnc3N2C1`: the melting point lay in the range of 225 to 227 °C.

Regarding `CCOC(=O)c1cnc2sccc2c1Sc1ccc(C)cc1`, the melting point is 60 to 63 °C.

On to `NS(=O)(=O)c1cccc(NC(=O)c2cnn3c(C(F)F)cc(-c4ccc(C(F)(F)F)cc4)nc23)c1`, for which the melting point is 258 °C.

Regarding `CC(C(=O)O)c1ccc(-c2ccc(F)cc2F)cc1` (stereo not given), the melting point lay within 110 to 113 °C.

The values above are taken from a melting point compilation (Tetko et al.; mined from patent text by program, amines drawn as free bases though some values may be those of a salt).
